Measured values reported in article PMC11274943, “Discovery of Benzisothiazolone Derivatives as Bifunctional Inhibitors of HIV-1 Reverse Transcriptase DNA Polymerase and Ribonuclease H Activities” (Biomolecules, 2024).
“And” between values parts separate entries of the source, which are not always exact repeats. Equal entries are not always repeated.

Legend:
[1] = test system: G190A HIV-1 RT RNase H activity; experiment: FRET-based RT RNase H cleavage assay, G190A RT; assay type: biochemical; conditions: G190A RT; fold resistance IC50 mutant/IC50 WT
Description: (§1) WT (wild-type) RT, and RTs harboring the NNRTI-resistant mutations K101E, K103N, Y181C, Y188C, G190A and P236L, were overexpressed and purified to homogeneity as described previously. The RT concentration was determined spectrophotometrically at 280 nm using an absorbance coefficient of 260,450 M^−1·cm^−1. The 7-hydroxy tropolone derivative 19,616 (2,7-dihydroxy 2,4,6-cyclo-heptatrien-1-one) was purchased from Molecular Diversity Preservation International (Basel, Switzerland). Nevirapine was purchased from Selleckchem (Houston, TX, USA). The benzisothiazolone derivatives were procured from MolPort (New York, NY, USA) or Enamine (Kyiv, Ukraine). The DNA and RNA oligonucleotides were synthesized and purified by Integrated DNA Technologies (Coralville, IA, USA). All other reagents were of the highest quality available and were used without further purification.
(§2) The following RNA/DNA T/P substrate was used in the present study: an 18-nucleotide RNA template (RNA-18T: 5′-[…]-3′) was annealed to an 18-nucleotide primer (DNA-18T: 5′-[…]-3′), as described previously. Fluorescein and IowaBlack FQTM were covalently attached to the 3′- and 5′-ter-mini of the RNA and DNA oligonucleotides, respectively.
(§3) The FRET-based RNase H cleavage assays were carried out as described previously. Fluorescence was measured with a SpectraMax M2 microplate spectrofluorometer (Molecular Devices, San Jose, CA, USA) using an excitation wavelength of 490 nm and an emission wavelength of 528 nm. Data were analyzed using SoftMax Pro software, version 4.7.1 (Molecular Devices, San Jose, CA, USA).

[2] = target: T1, G190A HIV-1 RT RNase H activity (Human immunodeficiency virus type 1 group M subtype B, UniProt P04585, G777A); experiment: FRET-based RT RNase H cleavage assay, G190A RT; assay type: biochemical
T1 construct: made in house
Description: as §1, §2, §3

[3] = target: T2, WT HIV-1 RT RNase H activity (Human immunodeficiency virus type 1 group M subtype B, UniProt P04585); experiment: biochemical; assay type: biochemical
T2 construct: made in house
Description: as §1, with “Nevirapine was purchased from Selleckchem (Houston, TX, USA).” left out
Compounds were screened at a final concentration of 10 µM in 1× assay buffer (50 mM Tris pH 8.0, 60 mM KCl, 5 mM MgCl2) containing 1% DMSO in 384-well Greiner black polystyrene plates (VWR catalog # 82051-272). A total of 10 µL of intermediate diluted compounds (100 µM in 10% DMSO) was transferred into assay plates using the Evolution-3 (EP3) (Perkin Elmer, Waltham, MA, USA) automated liquid handling platform outfitted with a 384-well transfer head. A total of 40 µL of RT-RNase H enzyme (60 ng per well) were then dispensed into each well using the Titertek MAP-C2 reagent dispenser platform (Huntsville, AL, USA). A total of 50 µL of the RNA/DNA duplex (140 nM) substrate was then dispensed into each well using the MAP-C2 dispenser, and the assay plates were then incubated at room temperature for 20 min. After 20 min, the assay was terminated by the addition of 10 µL of 1 M EDTA pH 9.0 stop buffer. Relative fluorescent unit (RFU) signals, Excitation 490 nm and Emission 528 nm (Cutoff 515 nm), were captured on the Spectromax M5e plate reader (Molecular Devices, Menlo, CA, USA). […] The template also calculated the plate signal-to-background (S:B) ratios (mean maximum signal/mean minimum signal) and Z’-factor coefficient HTS performance statistics.
as §2, §3
We implemented a rapid, robust and inexpensive fluorescence-based 384-well assay for the measurement of RT RNase H activity, previously described by Parniak et al.. The substrate comprises an 18-nucleotide 3′-fluorescein-labeled heteropolymeric RNA annealed to a complementary 5′-dabcyl-modified DNA. RT cleaves the RNA strand of this substrate close to the 3′ end, promoting the dissociation of the fluorescein-labeled RNA fragment and generating a detectable fluorescent signal. We used this HTS assay to screen 65,239 compounds at a final concentration of 10 µM.

[4] = target: T3, K101E HIV-1 RT RNase H activity (Human immunodeficiency virus type 1 group M subtype B, UniProt P04585, K688E); experiment: FRET-based RT RNase H cleavage assay, K101E RT; assay type: biochemical
T3 construct: made in house
Description: as §1, §2, §3

[5] = test system: K101E HIV-1 RT RNase H activity; experiment: FRET-based RT RNase H cleavage assay, K101E RT; assay type: biochemical; conditions: K101E RT; fold resistance IC50 mutant/IC50 WT
Description: as §1, §2, §3

[6] = test system: K103N HIV-1 RT RNase H activity; experiment: FRET-based RT RNase H cleavage assay, K103N RT; assay type: biochemical; conditions: K103N RT; fold resistance IC50 mutant/IC50 WT
Description: as §1, §2, §3

[7] = target: T4, K103N HIV-1 RT RNase H activity (Human immunodeficiency virus type 1 group M subtype B, UniProt P04585, K690N); experiment: FRET-based RT RNase H cleavage assay, K103N RT; assay type: biochemical
T4 construct: made in house
Description: as §1, §2, §3

[8] = test system: P236L HIV-1 RT RNase H activity; experiment: FRET-based RT RNase H cleavage assay, P236L RT; assay type: biochemical; conditions: P236L RT; fold resistance IC50 mutant/IC50 WT
Description: as §1, §2, §3

[9] = target: T5, P236L HIV-1 RT RNase H activity (Human immunodeficiency virus type 1 group M subtype B, UniProt P04585, P823L); experiment: FRET-based RT RNase H cleavage assay, P236L RT; assay type: biochemical
T5 construct: made in house
Description: as §1, §2, §3

[10] = Cytotoxicity in TZM-bl cells; assay type: cell-based; conditions: human, TZM-bl cell death
Description: Next, we re-purchased 10 hit compounds with IC50 values < 1.0 µM for the inhibition of RT RNase H activity that were commercially available in sufficient quantities for further analysis. We assessed their antiviral activity and cytotoxicity in TZM-bl cells, as described previously.

[11] = test system: Y181C HIV-1 RT RNase H activity; experiment: FRET-based RT RNase H cleavage assay, Y181C RT; assay type: biochemical; conditions: Y181C RT; fold resistance IC50 mutant/IC50 WT
Description: as §1, §2, §3

[12] = target: T6, Y181C HIV-1 RT RNase H activity (Human immunodeficiency virus type 1 group M subtype B, UniProt P04585, Y768C); experiment: FRET-based RT RNase H cleavage assay, Y181C RT; assay type: biochemical
T6 construct: made in house
Description: as §1, §2, §3

SMILES | Inhibition of RT RNase H Activity Fold-R [1] | IC50 [2] | IC50 [3] | IC50 [4] | Inhibition of RT RNase H Activity Fold-R [5] | Inhibition of RT RNase H Activity Fold-R [6] | IC50 [7] | Inhibition of RT RNase H Activity Fold-R [8] | IC50 [9] | CC50 [10] | Inhibition of RT RNase H Activity Fold-R [11] | IC50 [12]
CCN(CC)S(=O)(=O)c1cccc(-n2sc3ccccc3c2=O)c1 [Compound 4, N,N-diethyl-3-(3-oxobenzo[d]isothiazol-2(3H)-yl)benzenesulfonamide] | 1.2 | 310 ± 40 nM | 260 ± 80 nM | 90 ± 30 nM | 0.3 | 3.2 | 830 ± 230 nM | 1.2 | 310 ± 40 nM | ≥ 100000 nM | 1.0 | 270 ± 30 nM
CCOC(=O)Cc1csc(-n2sc3ccccc3c2=O)n1 [Compound 2, ethyl 2-(2-(3-oxobenzo[d]isothiazol-2(3H)-yl)thiazol-4-yl)acetate] | 1.8 | 230 ± 20 nM | 130 ± 40 nM | 280 ± 20 nM | 2.2 | 1.8 | 240 ± 120 nM | 1.6 | 210 ± 10 nM | ≥ 100000 nM | 4.2 | 550 ± 20 nM
Cc1ccc(-n2sc3ccccc3c2=O)cc1S(=O)(=O)N1CCCCC1 [Compound 1, 2-(4-methyl-3-(piperidin-1-ylsulfonyl)phenyl)benzo[d]isothiazol-3(2H)-one] | 1.3 | 210 ± 20 nM | 160 ± 30 nM | 250 ± 60 nM | 1.6 | 2 and 2.1 | 340 ± 40 nM | 1.4 | 220 ± 10 nM | ≥ 100000 nM | 2.9 | 470 ± 50 nM
